This passage reports IC50 results from patent publication US12522594B2, “2-heteroaryl-3-oxo-2,3-dihydropyridazine-4-carboxamides for the treatment of cancer” (Deutsches Krebsforschungszentrum, priority 2017, dated 2026).

In assay [1] the target is T1, AHR (Homo sapiens, UniProt P35869).
T1 sequence (P35869 11-848): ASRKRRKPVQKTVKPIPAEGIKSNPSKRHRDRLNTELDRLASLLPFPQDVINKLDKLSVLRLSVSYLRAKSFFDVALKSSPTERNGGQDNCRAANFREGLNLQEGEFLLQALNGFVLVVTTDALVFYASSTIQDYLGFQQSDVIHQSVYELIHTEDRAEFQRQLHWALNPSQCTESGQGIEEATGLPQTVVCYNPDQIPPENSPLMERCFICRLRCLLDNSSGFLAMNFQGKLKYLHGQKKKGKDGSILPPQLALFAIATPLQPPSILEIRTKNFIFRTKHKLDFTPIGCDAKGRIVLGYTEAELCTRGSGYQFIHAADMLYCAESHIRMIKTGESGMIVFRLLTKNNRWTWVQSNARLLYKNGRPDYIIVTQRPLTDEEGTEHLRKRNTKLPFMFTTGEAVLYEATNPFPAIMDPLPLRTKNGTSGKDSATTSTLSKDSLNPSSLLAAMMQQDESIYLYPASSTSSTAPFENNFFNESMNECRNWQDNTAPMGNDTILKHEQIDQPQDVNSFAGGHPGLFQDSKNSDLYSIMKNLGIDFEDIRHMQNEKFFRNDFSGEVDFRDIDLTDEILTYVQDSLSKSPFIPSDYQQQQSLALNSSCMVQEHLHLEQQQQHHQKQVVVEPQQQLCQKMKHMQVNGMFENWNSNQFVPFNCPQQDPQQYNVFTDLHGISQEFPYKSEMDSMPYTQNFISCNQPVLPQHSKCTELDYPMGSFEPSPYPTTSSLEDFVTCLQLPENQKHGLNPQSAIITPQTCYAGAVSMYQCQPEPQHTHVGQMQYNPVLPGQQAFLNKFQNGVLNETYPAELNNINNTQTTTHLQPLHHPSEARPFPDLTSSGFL
In words: In vitro assay 1: antagonism in human cell line (transactivation assay, U87 cells prestimulated with kynurenic acid, DRE firefly luciferase reporter). In kind it is cell-based. Also on record: host or cells: U87 glioblastoma cells, stably transfected with DRE firefly luciferase and renilla reporter constructs. The note with it: 150 uM kynurenic acid, 20 hours, read-out: Assay 1: AHR-luc Hum Antagonism IC50. The essentials:
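U87 glioblastoma cells with endogenous AHR, stably carrying a DRE-driven firefly luciferase reporter and a constitutive renilla reporter. Cells prestimulated with the AHR agonist kynurenic acid before compound addition; data normalized to positive and negative controls.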
A general note: Reporter assays use an easily measured gene product as a stand-in for the process of interest.

Assay [2] deals with T1, AHR. Nature of the assay: In vitro assay 2: agonism in human cell line (transactivation assay, U87 cells, DRE firefly luciferase reporter). Also on record: host or cells: U87 glioblastoma cells, stably transfected with DRE firefly luciferase and renilla reporter constructs. The conditions noted are these: no kynurenic acid, 20 hours, read-out: Assay 2: AHR-luc Hum Agonism IC50. In kind it is cell-based. The essentials: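 U87 glioblastoma cells with endogenous AHR, stably carrying DRE-driven firefly luciferase and constitutive renilla reporters. 300 uM kynurenic acid served as positive activation control; data normalized to positive and negative controls.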

Take `Cn1cc(-n2nc(-c3ccc(CF)cc3)cc(C(=O)NC[C@H](O)C(F)(F)F)c2=O)cn1` [Example 283, 6-[4-(Fluoromethyl)phenyl]-2-(1-methyl-1H-pyrazol-4-yl)-3-oxo-N-[(2S)-3,3,3-trifluoro-2-hydroxypropyl]-2,3-dihydropyridazine-4-carboxamide]: the half-inhibitory concentration (IC50) (usually the concentration that gives 50% inhibition) in assay [1] was 430 nM; in assay [2] it was more than 20000 nM.
Take `O=C(N[C@H]1COC[C@H]1O)c1cc(-c2ccc(Cl)cc2)nn(-c2ccnnc2)c1=O` (relative stereo) [Example 181, 3-(4-Chlorophenyl)-N-[(cis)-4-hydroxytetrahydrofuran-3-yl]-6-oxo-6H-1,4′-bipyridazine-5-carboxamide]: the figures for the IC50 in assay [1] and in assay [2] were 911 nM and more than 20000 nM, respectively.
In the same order, the values of `C[C@@H](CO)NC(=O)c1cc(-c2ccc(C(F)(F)F)nc2)nn(-c2cnsc2)c1=O` [Example 251, N-[(2S)-1-Hydroxypropan-2-yl]-3-oxo-2-(1,2-thiazol-4-yl)-6-[6-(trifluoromethyl)pyridin-3-yl]-2,3-dihydropyridazine-4-carboxamide] are 17.9 nM and more than 20000 nM.
Consider `O=C(N[C@H](CO)C(F)(F)F)c1cc(-c2ccc(C(F)F)cc2)nn(-c2cccnc2)c1=O` [Example 127, 6-[4-(Difluoromethyl)phenyl]-3-oxo-2-(pyridin-3-yl)-N-[(2R)-1,1,1-trifluoro-3-hydroxypropan-2-yl]-2,3-dihydropyridazine-4-carboxamide], for which the values for the IC50 in assay [1] and in assay [2] were 4.17 nM and more than 20000 nM, respectively.
In the case of `O=C(N[C@H](CO)C(F)(F)F)c1cc(-c2ccc(C(F)(F)F)cc2)nn(-c2cnn(C(F)F)c2)c1=O` [Example 214, 2-[1-(Difluoromethyl)-1H-pyrazol-4-yl]-3-oxo-N-[(2R)-1,1,1-trifluoro-3-hydroxypropan-2-yl]-6-[4-(trifluoromethyl)phenyl]-2,3-dihydropyridazine-4-carboxamide], the IC50 is 2.07 nM in assay [1] and more than 20000 nM in assay [2].
In the same order, the values of `O=C(N[C@H](CO)C1CC1)c1cc(-c2ccc(Cl)cc2)nn(-c2cncc(F)c2)c1=O` [Example 259, 6-(4-Chlorophenyl)-N-[(1S)-1-cyclopropyl-2-hydroxyethyl]-2-(5-fluoropyridin-3-yl)-3-oxo-2,3-dihydropyridazine-4-carboxamide] are 28.1 nM and more than 20000 nM.
For `CC(C)(O)CNC(=O)c1cc(-c2ccc(Cl)cc2)nn(-c2ccnnc2)c1=O` [Example 178, 3-(4-Chlorophenyl)-N-(2-hydroxy-2-methylpropyl)-6-oxo-6H-1,4′-bipyridazine-5-carboxamide], in that order: 594 nM and more than 20000 nM.
For `Cn1cc(-n2nc(-c3ccc(OC(F)F)cc3)cc(C(=O)NC(C(C)(C)O)C(F)(F)F)c2=O)cn1` (single isomer, unassigned) [Example 306, 6-[4-(Difluoromethoxy)phenyl]-2-(1-methyl-1H-pyrazol-4-yl)-3-oxo-N-(1,1,1-trifluoro-3-hydroxy-3-methylbutan-2-yl)-2,3-dihydropyridazine-4-carboxamide], in that order: 1.33 nM and more than 20000 nM.
Turning to `Cn1cc(-n2nc(-c3ccc(C(F)(F)F)cc3)cc(C(=O)NC[C@H](O)C(F)F)c2=O)cn1` [Example 219, N-[(2S)-3,3-Difluoro-2-hydroxypropyl]-2-(1-methyl-1H-pyrazol-4-yl)-3-oxo-6-[4-(trifluoromethyl)phenyl]-2,3-dihydropyridazine-4-carboxamide], the IC50 is 3.21 nM in assay [1] and more than 20000 nM in assay [2].
In the same order, the values of `CC(C)(O)CNC(=O)c1cc(-c2ccc(C(F)(F)F)cc2)nn(-c2cn[nH]c2)c1=O` [Example 266, N-(2-Hydroxy-2-methylpropyl)-3-oxo-2-(1H-pyrazol-4-yl)-6-[4-(trifluoromethyl)phenyl]-2,3-dihydropyridazine-4-carboxamide] are 56.8 nM and more than 20000 nM.
